The numbers were not newly measured in patent US9504662B2, “Composition for skin improvement comprising hexamidines and retinoids” (AMOREPACIFIC CORPORATION, priority 2009, dated 2016), which cites them from elsewhere.

For the series the following is noted: 4 μM of retinol vs 100 nM of Isotretinoin; general statement, no method given.

On to `CC1=C(/C=C/C(C)=C/C=C/C(C)=C/CO)C(C)(C)CCC1` [retinol], for which the sebum-inhibiting effect result is given as “substantially has the same degree of sebum-inhibiting effect as 100 nM of Isotretinoin”.
